The nature of data set [1]: Pharmacokinetic analysis in vivo in BALB/c mice. Also on record: species or system BALB/c female mice. The settings on record: PO, Example 13, compared to IV set to 100%. The method, then: Pharmacokinetic analysis was performed in vivo in fed BALB/c female mice (n=4) (Study DZIF11). The solid formulation was suspended right before administration in PBS (phosphate buffered saline; pH=7.4) and was administered via gavage (36 mg/kg CorA, 10 mL/kg). Blood samples from the vena facialis were collected after 5, 10, 15, 30, 180, and 480 min. The samples were centrifuges for 10 min at 4° C. and 15000 g. The generated plasma was mixed in a ration of 1:3 with ice-cold acetonitrile (Bernd Kraft GmbH, Duisburg). The mixture was vortexed for 10 sec and centrifuged for 25 min at 4° C. and 11600 g. […] For the gradient method starting from 70% A/30% B to 20% A/80% B stepwise within 30 min, the mobile phases A (acetonitrile/water (Bernd Kraft GmbH, Duisburg) 5/95 with 5 mM ammonium acetate (Merck KGaA, Darmstadt) and 40 μL acetic acid (Sigma-Aldrich Chemie GmbH, Steinheim) per Liter) and B (acetonitrile/water 95/5 with 5 mM ammonium acetate and 40 μL acetic acid per Liter) enabled to quantitate corallopyronin A precisely at 300 nm at a flow rate of 0.3 mL/min and a column temperature of 30° C. The samples were quantitated via external reference standard. The content of the corallopyronin A reference material was analyzed by ^1H-NMR.
Plasma concentration-time profiles were generated and pharmacokinetic parameters calculated. […]

A short description of data set [2]: Biphasic dissolution test (BiPHa+). Type of data set: physicochemical. Conditions: organic phase 1-decanol. An excerpt:
To simulate the gastrointestinal properties to obtain in vivo predictive results, the pH-profile, bile salt concentration and gastrointestinal passage time were adjusted in the aqueous phase to mimic human gut conditions. […] An organic phase of 1-decanol above the aqueous phase imitated the fraction absorbed from the gut. As a test model, the profile of a person without prior food intake was chosen. Therefore, FaSSIF-V2 medium, which represents the bile salts concentration of a fasted human was used. […] To generate an in-situ biorelevant aqueous medium for the fasted state, biorelevant surfactants, namely sodium-taurocholate (3 mM) and lecithin (0.2 mM), were added.
Prior to the start of the experiments, both phases, 1-decanol and the acidic aqueous phase, were saturated with each other.
After 30 min FaSSIF-V2 concentrate (sodium-taurocholate and lecithin) was added simultaneously to the addition of citrate-phosphate buffer (tri-potassium phosphate and potassium citrate) resulting in a first pH-shift from pH 1 to pH 5.5, simulating the duodenum. […] The adjusted buffers were titrated by 0.1 M NaOH and 0.1 M HCl (pH 5.5-6.8). The whole dissolution took 4.5 hours.

Data set [3] can be described thus: Stability analysis (storage, CorA content by HPLC-DAD). The class given is physicochemical. Here is the method: The stability of the spray dried amorphous formulation of corallopyronin A embedded in polyvinylpyrrolidone was analyzed after storing samples in drying cabinets at 25° C./60% relative humidity (RH) and under accelerated conditions at 40° C./75% RH for 7, 14, 28 days and 3 months. The samples were stored in closed twist-off glass vials under nitrogen and in the presence of silica desiccant. The content was analyzed by High-Performance Liquid Chromatography with Diode-Array Detection (HPLC-DAD). The samples were, therefore, dissolved in acetonitrile (Bernd Kraft GmbH, Duisburg). The HPLC measurements were performed on a Waters Alliance e2695 separation module connected to a waters 2998 PDA detector. A waters XBridge® Shield RP18, 3.5 μm, 2.1×100 mm, 130 A column was used. For the gradient method starting from 70% A/30% B to 20% A/80% B stepwise within 30 min, the mobile phases A (acetonitrile/water (Bernd Kraft GmbH, Duisburg) 5/95 with 5 mM ammonium acetate (Merck KGaA, Darmstadt) and 40 μL acetic acid (Sigma-Aldrich Chemie GmbH, Steinheim) per Liter) and B (acetonitrile/water 95/5 with 5 mM ammonium acetate and 40 μL acetic acid per liter) enabled to quantitate corallopyronin A precisely at 300 nm at a flow rate of 0.3 mL/min and a column temperature of 30° C. The samples were quantitated via external reference standard. The content of the corallopyronin A reference material was analyzed by ^1H-NMR. The following table 2 summarizes the results of the stability analysis.

Data set [4] can be described thus: Solubility of corallopyronin A in ethanol. Type of data set: physicochemical.

For the substance “methyl N-[(E)-5-[6-hydroxy-5-[(2E,4E,9Z,13E)-8-hydroxy-2,5,9-trimethylpentadeca-2,4,9,13-tetraenoyl]-4-oxopyran-2-yl]hex-1-enyl]carbamate [CorA]”, the “Absolute Bioavailability” value in data set [1] is reported as 11%. Moreover, the predicted absorption in data set [2] (FaSSIF-V2 fasted human, pH 1 to 5.5 to 6.8, 4.5 hours, about 10 mg CorA) is 7.7%. In data set [2] (fasted human gut conditions, 4.5 h), the “Maximum Partitioned Drug in the Organic Phase (%)” value was 8%. Besides, the “CorA Content” value in data set [3] (3 months, 25° C., 60% RH, listed as Corallopyronin A) is recorded as 39%; in data set [3] (3 months, 25° C., 60% RH, listed as corallopyronin A) it was “below 40%”; in data set [3] (3 months, 40° C., 75% RH, listed as Corallopyronin A) it was 6%; in data set [3] (3 months, 40° C., 75% RH, listed as corallopyronin A), “below 10%”; in data set [3] (7 days, 25° C., 60% RH, listed as Corallopyronin A), 85%; in data set [3] (7 days, 25° C., 60% RH, listed as corallopyronin A) it was “below 90%”. Further, the “CorA Content” value in data set [3] (7 days, 40° C., 75% RH, listed as Corallopyronin A) is 47%; in data set [3] (7 days, 40° C., 75% RH, listed as corallopyronin A), “below 50%”; in data set [3] (14 days, 25° C., 60% RH), 76%; in data set [3] (14 days, 40° C., 75% RH), 31%; in data set [3] (28 days, 25° C., 60% RH), 63%; in data set [3] (28 days, 40° C., 75% RH) it was 17%. Further, the “CorA Content” value in data set [3] (storage duration 0) is 99%. The “amount that can be dissolved in ethanol” value in data set [4] is reported as 100 mg/mL.
